Earlier results, collected in patent US10137135B2, “Formulations and methods for providing progestin-only contraception while minimizing adverse side effects associated therewith” (Allergan Sales, LLC, priority 2005, dated 2018).

System: ovulation
Details: subdermal implants of NEA

C#C[C@]1(OC(C)=O)CC[C@H]2[C@@H]3CCC4=CC(=O)CC[C@@H]4[C@H]3CC[C@@]21C [NEA, norethindrone acetate]
NE levels thought to be required to consistently inhibit ovulation: 600 pg/mL
